Reference: US4680382A, “Analogues of actinomycin D” (priority 1986, dated 1987)
Where “and” joins values, the source holds several entries; their conditions need not be identical. Equal values may be shown once. *1 amine or outer side, *2 acyl side, *3 side chain or, on linkers, in order; H or OH if unused. Where a SMILES comes first, the peptide text is derived from it. Bridges are numbered along the chain shown (N, C = ends). Roman numbers before positions name the chains, in order. [ ]: non-standard residue; d: D form. Actinocin(9to1) = Cc1c2oc3c(C)ccc(C(=O)[*:1])c3nc-2c(C(=O)[*:2])c(N)c1=O; NMeV = CN[C@H](C(=O)O)C(C)C; Sar = CNCC(=O)O

What was measured:
[1] = system: CCRF-CEM human lymphoblastic leukemic cells; assay: In vitro cytotoxicity against CCRF-CEM cells; format: cell-based; settings: 48 hr
Method: ^a Human lymphoblastic leukemic cells.
The analogues were tested for their cytotoxicity against tumor cells (time, 48 hr). […] This may be associated with the initial microsomal transformation of the "reverse" analogues to "symmetrical" analogue and/or other alternate bioactive forms (e.g., free-radicals, O2^-), followed by deactivation via formation of conjugates and facile elimination of these from the host. The "reverse" analogues show reduced toxicity in vivo and also the tritiated "reverse" 7a is metabolized in vitro.

[2] = system: P388 cells; assay: Inhibition of RNA synthesis (2-[14C]uridine incorporation) in P388 cells; format: cell-based, murine; settings: for IC50: 50% reduction in 1 hr of 2-[14C]uridine incorporation, read-out: IC50 RNA synth; for IC50 DNA/IC50 RNA: ratio
Method: (§1) Experiments for inhibition of nucleic acid synthesis in tumor cells in vitro were carried out with P388 tumor cells, details of which were reported by Sengupta et al, J. Med. Chem., 18, 1175 (1975). […] AMD-OZLs inhibit either process with equal activity and with the potency of its metabolite 7-hydroxy-AMD.
^b IC50 (RNA) = concentration of inhibitor in μM required to
cause 50% reduction (in 1 hr) in 2[^14 C]uridine incorporation into
acid precipitable material with use of P388 cells.

[3] = system: P388 cells; assay: Inhibition of DNA synthesis (methyl-[3H]thymidine incorporation) in P388 cells; format: cell-based, murine; settings: 50% reduction in 1 hr of methyl-[3H]thymidine incorporation, read-out: IC50 DNA synth
Method: as §1
^c IC50 (DNA) = concentration of inhibitor in μM required to
cause 50% reduction (in 1 hr) in methyl[^3 H]thymidine incorporation
into acid precipitable material with use of P388 cells.

[4] = system: P388 lymphocytic leukemia; assay: In vivo antitumor activity against P388 leukemia; set-up: species or system BDF1 mice; settings: for surv (surviving mice/total mice at 60 days) / % ILS / MST (range): P388, at optimal dose; for % ILS: 100(T/C - 1); for MST (range): control 11.0 (9-12); for optimal dose: P388, ip, days 1, 5 and 9, optimal nontoxic dose
Method: The analogues were tested for their antitumor activities in P388 lymphocytic leukemia in male BDF1 mice. The tumor was implanted intraperitoneally (ip) with 10^6 cells. The drugs were also administered ip once daily on days 1, 5 and 9, beginning 1 day after tumor transplantation. Analogues were tested over a range of doses, but only the optimal nontoxic doses are listed.
^a 10^6 P388 cells implanted ip on day 0 into groups of eight
BDF1 male mice. Drugs administered ip. MST (range), median survival
time in days (range of individual animal deaths); % ILS, percent increase
in life span, calculated 100(T/C - 1), where T and C are median survival
times of treated and control animals; surv, number of surviving mice/tota

[5] = system: B16 melanoma; assay: In vivo antitumor activity against B16 melanoma; set-up: species or system BDF1 mice; settings: for % ILS / surv (survivors on day 65/total injected) / MST (range): at optimal dose; for MST (range): control 29 (20-48); for optimal dose: ip, days 1, 5, 9
Method: AMD-OZL analogues 9a and 10a were about as active as AMD and 7-hydroxy-AMD. The potencies of these analogues are reduced in comparison to that of AMD; their optimal doses were higher than that of AMD.
^a 0.2 mL of 1:5 (weight/volume) brei of B16 melanoma implanted
ip on day 0 in groups of nine BDF1 mice. Drugs administered ip.
^b MST (range) median survival time in days (range of individual
^c % ILS (surv), percent increase in lifespan (survivors on day

[6] = system: rat hepatic microsomes; assay: Stimulation of adrenochrome formation (superoxide generation) in rat hepatic microsomal incubations; settings: for adrenochrome formation: 480 nm, 37° C., no more than 100 μM drug, basal 2.11 ± 0.11; for adrenochrome formation / percentage stimulation of adrenochrome formation over basal rate: no SOD; for adrenochrome formation in presence of SOD: SOD (superoxide dismutase) 5 μg/mL added
[7] = Metabolism of tritiated drugs by rat liver microsomes with NADPH-generating system; format: in vitro ADME; settings: for Percent isolated: unconverted: 37° C.
Method: A method of using tumor cell sonicates was developed to study the metabolism of the analogues of AMD. By use of sonicated cells, the dilution effects that would occur if flasks of cultured cells were used are avoided. Although the cells are disrupted by this method, their enzyme systems appear to remain active. Large numbers of tumor cells (P388 murine leukemia) were sonicated in Earle's balanced salt solution (EBSS) and were incubated with tritiated AMD and its analogues 7a and 9a (Table II) for 16 hr. In another experiment, the analogues were treated with rat hepatic microsomes at 37° C. for 6 hr in the presence of a NADPH-generating system. The metabolic products were isolated and identified with the following results (Table II). […] In the microsomes, the major metabolites were in unconjugated forms; in the tumor cell homogenates, the major identified metabolites were glucuronide and sulfate conjugated forms. It should be pointed out that in these metabolic experiments, the identification of these glucuronide and/or sulfate conjugates was made only on the basis of the disappearance of the peaks from the HPLC chromatograms upon treatment with deconjugating enzymes glucarase.
The incubation mixture consisted of 500 μg of microsomal protein 1.6 mM NADP^+, 16 mM glucose 6-phosphate, 10.1 U of glucose-6-phosphate dehydrogenase, 12 mM MgCl2, 10 mM sodium phosphate-potassium phosphate (pH 7.4) and 0.4-0.8 mM of tritiated drugs (including AMD) in a final volume of 5.0 mL. The mixtures were incubated at 37° C. for 6 hr, after which the reaction was stopped by chilling at 0° C. The chilled mixtures were filtered by centrifugation in tubes containing centriflow membrane cones (Amicon, 1053, molecular weight cut-off 25000). The filtrates were adjusted to pH 5.0 before extraction with water-saturated ethyl acetate (step A).
Equal aliquots of the aqueous layer (step A) were treated either with equal volumes of glucarase (5 mg/mL) in 0.05M acetate buffer, pH 5.0, overnight at 37° C. under nitrogen in a shaking water bath or with buffer alone (step B). The aqueous fractions from step B were mixed with an extract of the Amicon cone-retained material. The metabolites at each step were separated by HPLC (Table II). For extraction of the high molecular weight protein conjugates and other tissue-associated materials, the cones were soaked in 0.1N NaOH solution overnight at 0° C. and were processed as in the preceding section before gel filtration. A Sephacryl S-200 superfine column, 1.0× 60 cm, was made in 6M guanidine hydrochloride, pH 5.0, and the lyophilized material in minimum water, pH 7.0, was added to the top of the column and eluted overnight with 6M guanidine hydrochloride, pH 5.0, at a flow rate of 2 cm/hr. A 2% solution of blue dextran 2000 (100 μL, Pharmacia) was added to the column for calibration. Fractions were collected, and the distribution of the material in the fractions was determined by liquid scintillation counting. […] For assay of metabolites, a Varian Moden 5020 gradient liquid chromatograph equipped with a CD-111L chromatography data system was used.

Cc1c2oc3c(C)c(O)c(N)c(C(=O)NC4C(=O)NC(C(C)C)C(=O)N5CCCC5C(=O)N(C)CC(=O)N(C)C(C(C)C)C(=O)OC4C)c3nc-2c(C(=O)NC2C(=O)NC(C(C)C)C(=O)N3CCCC3C(=O)N(C)CC(=O)N(C)C(C(C)C)C(=O)OC2C)c(N)c1=O (stereo not shown) [4a, 7-Hydroxy-8-amino-actinomycin D]
in vitro (CCRF-CEM) ID50 [1]: 0.03 µM
IC50 [2]: 1.15 µM
IC50 DNA/IC50 RNA [2]: 0.97
IC50 [3]: 1.11 µM
surv (surviving mice/total mice at 60 days) [4]: 4/8
% ILS [4]: 382%
MST (range) [4]: 52.0 (48-55) days
optimal dose [4]: 600.0 μg/kg per inj
% ILS [5]: 96%
surv (survivors on day 65/total injected) [5]: 4/9
MST (range) [5]: 57 (33-61) days
optimal dose [5]: 300 μg/kg per inj
adrenochrome formation [6]: 19.3 ± 1.04 nmol min^-1 (mg of protein)^-1
adrenochrome formation in presence of SOD [6]: inhibited
percentage stimulation of adrenochrome formation over basal rate [6]: 815%

Cc1nc2c(C(=O)NC3C(=O)NC(C(C)C)C(=O)N4CCCC4C(=O)N(C)CC(=O)N(C)C(C(C)C)C(=O)OC3C)c3nc4c(C(=O)NC5C(=O)NC(C(C)C)C(=O)N6CCCC6C(=O)N(C)CC(=O)N(C)C(C(C)C)C(=O)OC5C)c(N)c(=O)c(C)c-4oc3c(C)c2o1 [7a, 7-Amino-2,9,11-trimethyl-8H-8-oxooxazolo [4,5-b]phenoxazine 4,6-bis[carbonyl-L-threonyl-D-valyl-L-prolylsarcosyl-L-N-methylvaline-(threonine hydroxyl)] lactone]
Percent isolated: "tissue" bound ([7]; rat liver microsomes (M), 6 hr): 3.7%
Percent isolated: protein conjugates ([7]; rat liver microsomes (M), 6 hr): 3.5%
Percent isolated: unidentified metabolite ([7]; rat liver microsomes (M), 6 hr): 8.5%
Percent metabolite isolated: 4a glucuronide and/or sulfate ([7]; rat liver microsomes (M), 6 hr): nil
Percent metabolite isolated: "symmetrical" AMD (4a) ([7]; rat liver microsomes (M), 6 hr): 62.5%
Percent isolated: unconverted ([7]; rat liver microsomes (M), 6 hr): 21%
in vitro (CCRF-CEM) ID50 [1]: 0.11 µM
IC50 [2]: 0.09 µM
IC50 DNA/IC50 RNA [2]: 11.22
IC50 [3]: 1.01 µM
surv (surviving mice/total mice at 60 days) [4]: 3/8
% ILS [4]: 277%
MST (range) [4]: 42.5 (39-43) days
optimal dose [4]: 450.0 μg/kg per inj
% ILS [5]: 90%
surv (survivors on day 65/total injected) [5]: 3/9
MST (range) [5]: 55 (33-57) days
optimal dose [5]: 300 μg/kg per inj
adrenochrome formation [6]: 6.04 ± 0.19 nmol min^-1 (mg of protein)^-1
adrenochrome formation in presence of SOD [6]: inhibited
percentage stimulation of adrenochrome formation over basal rate [6]: 186%

Cc1nc2c(C(=O)NC3C(=O)NC(C(C)C)C(=O)N4CCCC4C(=O)N(C)CC(=O)N(C)C(C(C)C)C(=O)OC3C)c3nc4c(C(=O)NC5C(=O)NC(C(C)C)C(=O)N6CCCC6C(=O)N(C)CC(=O)N(C)C(C(C)C)C(=O)OC5C)cc(=O)c(C)c-4oc3c(C)c2o1 (stereo not shown) [9a]
Percent isolated: "tissue" bound ([7]; rat liver microsomes (M), 6 hr): 5.5%
Percent isolated: protein conjugates ([7]; rat liver microsomes (M), 6 hr): 9.5%
Percent isolated: unidentified metabolite ([7]; rat liver microsomes (M), 6 hr): 6%
Percent metabolite isolated: 2a glucuronide and/or sulfate ([7]; rat liver microsomes (M), 6 hr): nil
Percent metabolite isolated: 7-hydroxy-AMD (2a) ([7]; rat liver microsomes (M), 6 hr): 40.5%
Percent isolated: unconverted ([7]; rat liver microsomes (M), 6 hr): 38.5%
surv (surviving mice/total mice at 60 days) [4]: 0/0
% ILS [4]: 164%
MST (range) [4]: 29.0 (19-58) days
optimal dose [4]: 1200.0 μg/kg per inj
% ILS [5]: 55%
surv (survivors on day 65/total injected) [5]: 1/9
MST (range) [5]: 45 (32-55) days
optimal dose [5]: 750 μg/kg per inj
adrenochrome formation [6]: 4.36 ± 0.21 nmol min^-1 (mg of protein)^-1
adrenochrome formation in presence of SOD [6]: inhibited
percentage stimulation of adrenochrome formation over basal rate [6]: 106%

Cc1c2oc3c(C)ccc(C(=O)N[C@@H]4C(=O)N[C@H](C(C)C)C(=O)N5CCC[C@H]5C(=O)N(C)CC(=O)N(C)[C@@H](C(C)C)C(=O)O[C@@H]4C)c3nc-2c(C(=O)N[C@@H]2C(=O)N[C@H](C(C)C)C(=O)N3CCC[C@H]3C(=O)N(C)CC(=O)N(C)[C@@H](C(C)C)C(=O)O[C@@H]2C)c(N)c1=O [AMD, Actinomycin D] (I: T[dV]P[Sar][NMeV] / II: T[dV]P[Sar][NMeV]; ester I:1-I:C, II:1-II:C; linker I:N-II:N via Actinocin(9to1))
Percent isolated: unconverted ([7]; rat liver microsomes (M), 6 hr): 100%
formation of metabolite or conjugate ([7]; tumor cell homogenate and rat liver microsomes): did not form any detectable metabolite or conjugate
in vitro (CCRF-CEM) ID50 [1]: 0.05 µM
IC50 [2]: 0.05 µM
IC50 DNA/IC50 RNA [2]: 22 and 22.40
IC50 [3]: 1.12 µM
surv (surviving mice/total mice at 60 days) [4]: 1/8
% ILS [4]: 136%
MST (range) [4]: 26.0 (16-37) days
optimal dose [4]: 300.0 μg/kg per inj
% ILS [5]: 48%
surv (survivors on day 65/total injected) [5]: 2/9
MST (range) [5]: 43 (36-54) days
optimal dose [5]: 250 μg/kg per inj
adrenochrome formation [6]: 2.29 ± 0.33 nmol min^-1 (mg of protein)^-1
adrenochrome formation in presence of SOD [6]: inhibited
percentage stimulation of adrenochrome formation over basal rate [6]: 8.5%
